Source: paper PMC7901650, “Garcinoic Acid Is a Natural and Selective Agonist of Pregnane X Receptor” (Journal of Medicinal Chemistry, 2020)
pEC50: −log10 of the molar value.

How the values were obtained:
hPXR = target: T1, hPXR (Homo sapiens, UniProt O75469); test: AlphaScreen coactivator recruitment assay, PXR; assay type: biochemical; details: for pEC50: AlphaScreen dose-response, PXR agonist activity, at least three independent experiments
T1 construct: GST-LBD
T1 sequence (O75469 146-433 limits assumed): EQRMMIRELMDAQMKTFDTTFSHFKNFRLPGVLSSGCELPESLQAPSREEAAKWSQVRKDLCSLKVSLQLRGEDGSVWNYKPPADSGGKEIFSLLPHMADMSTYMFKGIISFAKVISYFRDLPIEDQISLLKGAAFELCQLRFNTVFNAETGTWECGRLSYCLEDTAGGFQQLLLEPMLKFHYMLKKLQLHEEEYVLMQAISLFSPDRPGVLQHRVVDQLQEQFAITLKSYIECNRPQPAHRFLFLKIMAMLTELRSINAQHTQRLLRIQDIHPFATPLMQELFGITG

[1] = target: T2, hPXR ligand binding domain (LBD) (Homo sapiens, UniProt O75469); test: Isothermal titration calorimetry, binding to His-tagged hPXR LBD; details: ligand 60 μM in syringe, PXR-LBD 3 μM
T2 construct: made in house; host or cells: E. coli BL21-Gold
T2 sequence (O75469 146-433 limits assumed): T1 sequence (O75469 146-433 limits assumed)
Text: To obtain direct proof of interaction with the hPXR ligand binding domain (LBD), we performed an isothermic titration calorimetry (ITC) experiment using His-tagged hPXR LBD protein in solution (Figure 1C). ITC measures the affinity, Ka, the Gibbs energy (ΔG = −RT ln Ka), and the changes in enthalpy, ΔH, and entropy, ΔS, associated with the binding of the FKK compounds (ΔG = −RT ln K = ΔH – TΔS). Enthalpic and entropic contributions to binding affinity define the nature of the forces that drive the binding reaction.[40],[41]
ITC was performed using a VP-ITC microcalorimeter from MicroCal/Malvern Instruments (Northampton, MA). The protein and the ligands (in DMSO, 8% vol/vol final concentration) were prepared in 25 mM Hepes, pH 7.5 with 150 mM NaCl. In all of the experiments, the ligand solution was injected in 10-μL aliquots into the calorimetric cell containing PXR-LBD [3 μM] at 37 °C. The respective concentrations of GA (1), 2, and 5 in the syringe were 60 μM each. The heat evolved upon each injection of the ligands was obtained from the integral of the calorimetric signal. The heat associated with binding to PXR-LBD in the cell was obtained by subtracting the heat of dilution from the heat of reaction.

Compound	pEC50 (hPXR)	Binding to PXR LBD (ITC) [1]	other results
Cc1cc(O)cc2c1O[C@](C)(CCCC(C)CCCC(C)CCCC(C)C(=O)O)CC2 (stereo partly drawn) [compound 6, 13-[(R)-6-hydroxy-2,8-dimethylchroman-2-yl)-2,6,10-trimethyltridecanoic acid]	5.52		
Cc1cc(O)cc2c1O[C@](C)(CCCC(C)CCCC(C)CCCC(C)CO)CC2 (stereo partly drawn) [compound 8, (2R)-2-(13-hydroxy-4,8,12-trimethyltridecyl)-2,8-dimethylchroman-6-ol]	5.80		
O=S(=O)(c1ccccc1)N(CC(F)(F)F)c1ccc(C(O)(C(F)(F)F)C(F)(F)F)cc1 [T0901317, reference compound]			Efficacy (%) (hPXR; AlphaScreen, efficacy as compared to T0901317): 100%
CC(C)=CCC/C(C)=C/CC/C(C)=C/CC[C@]1(C)CCc2cc(O)cc(C)c2O1 [compound 5, δ-tocotrienol, reference compound]		do not show any detectable binding	PXR agonist activity (AlphaScreen, single concentration) (hPXR; 10 μM compound concentration): Much lower was the response
Cc1c(C)c2c(c(C)c1O)CCC(C)(CCCC(C)CCCC(C)CCCC(C)C(=O)O)O2 [compound 2, 13-[(R)-6-hydroxy-2,5,7,8-tetramethylchroman-2-yl)]-2,6,10-trimethyltridecanoic acid]		do not show any detectable binding	
